Read-outs that look alike come from different tables or passages of the source.
Key:
[1] = tested on: HCT15 cells; assay: HCT15 anti-proliferation / cell killing assay (CellTiter-Glo), with or without verapamil; assay type: cell-based, human; conditions: Homo sapiens
How it was run: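 HCT15 human colorectal cells treated with compounds for 120 hours at 37° C (0.5% DMSO), with or without verapamil pre-added 1 h before compounds. Viability by CellTiter-Glo ATP luminescence; inhibition % computed against untreated and blank wells.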

[2] = Plasma stability test of payloads (LC-MS/MS, half-life); assay type: in vitro ADME; conditions: human plasma, 37° C., time points 0-24 h, read-out: Human plasma stability T1/2 (converted)
Procedure: Stock solutions were prepared at 10 mM in DMSO for the test compound. Aliquots of the stock solutions were diluted to 0.02 mM in 0.05 M sodium phosphate buffer containing 0.5% BSA as the dosing solution. Then 10 μL of the dosing solutions were dosed into 90 μL of pre-warmed plasma (37° C.) in singlet (n=1) in 96-well assay plates to reach a final test concentration of 2 μM. The plates were kept in a 37° C. water bath for the duration of the experiment. At each time point (0, 0.25, 1, 8, 24 h), 400 μL of acetonitrile (containing internal standard) was added into corresponding wells of the assay plates. After the final time point was quenched, the assay plates were shaken on a vibrator (IKA, MTS 2/4) for 10 min (600 rpm/min) and then centrifuged at 5594 g for 15 min (Thermo Multifuge×3R). Aliquots of the supernatant were taken and analyzed by LC-MS/MS. The peak area response ratio to internal standard (PARR) of the compounds at 0.25, 1, 8, and 24 h was compared to the PARR at time zero to determine the percent of test compound remaining at each time point. Half-lives (ti/2) were calculated using Excel software, fitting to a single-phase exponential decay equation.

[3] = tested on: SK-BR-3 cells; assay: SK-BR-3 anti-proliferation assay for payloads (CellTiter-Glo); assay type: cell-based; conditions: Homo sapiens, free payload, 120-144 h, read-out: SKBR3
How it was run: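 Payloads: SK-BR-3 cells (700/well, McCoy's 5a + 10% FBS) treated after 24 h, 0.5% DMSO, 120 h at 37° C. Alternative format: 1000 cells/well, compounds or ADCs in Opti-Mem/0.1% BSA (5%), 0.2% DMSO, 144 h. CellTiter-Glo luminescence; inhibition % versus untreated controls.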

[4] = HCT15 cells, no verapamil, 120 h (5 days), read-out: HCT-15
[5] = HCT-15, HCT15 cells pre-treated with verapamil, 120 h, read-out: HCT-15 with verapamil

SMILES | IC50 [1, 4] | IC50 [1, 5] | half-life at 2 μM [2] | IC50 [3]
CCCCCCN(C(=O)[C@@H](NC(=O)[C@H]1CCCCN1CCO)[C@@H](C)CC)[C@H](C[C@@H](OC(C)=O)c1nc(C(=O)N[C@@H](Cc2ccc(N)cc2)CC(C)(C)C(=O)O)cs1)C(C)C [PA7, (4S)-4-({2-[(1R,3R)-1-(acetyloxy)-3-[(2S,3S)—N-hexyl-2-{[(2R)-1-(2-hydroxyethyl)piperidin-2-yl]formamido}-3-methylpentanamido]-4-methylpentyl]-1,3-thiazol-4-yl}formamido)-5-(4-aminophenyl)-2,2-dimethylpentanoic acid] | 0.122 nM | 0.037 nM | 65.9 h | 0.038 nM
CCCCCCN(C(=O)[C@@H](NC(=O)[C@H]1CCCCN1C)[C@@H](C)CC)[C@H](C[C@@H](OCC)c1nc(C(=O)N[C@@H](Cc2ccc(NCCO)cc2)CC(C)(C)C(=O)O)cs1)C(C)C (racemic) [PA15, Rac-(R)-4-(2-((1S,3S)-1-ethoxy-3-((2R,3R)—N-hexyl-3-methyl-2-((S)-1-methylpiperidine-2-carboxamido)pentanamido)-4-methylpentyl)thiazole-4-carboxamido)-acid] | 1.7 nM | 0.393 nM | 103 h | 0.314 nM
CCCCCCN(C(=O)[C@@H](NC(=O)[C@@]1(C)CCCN1)[C@@H](C)CC)[C@H](C[C@@H](OC(C)=O)c1nc(C(=O)N[C@@H](Cc2ccc(N)c(F)c2)CC(C)(C)C(=O)O)cs1)C(C)C [Compound P15, reference compound] | 1.66 nM | 0.19 nM | 15.1 h | 0.068 nM
CCCCCCN(C(=O)[C@@H](NC(=O)[C@H]1CCCCN1C)[C@@H](C)CC)[C@H](C[C@@H](OC(C)=O)c1nc(C(=O)N[C@@H](Cc2ccc(NCCO)cc2)CC(C)(C)C(=O)O)cs1)C(C)C (racemic) [PA14, Rac-(R)-4-(2-((1S,3S)-1-acetoxy-3-((2R,3R)—N-hexyl-3-methyl-2-((S)-1-methylpiperidine-2-carboxamido)pentanamido)-4-methylpentyl)thiazole-4-carboxamido)-acid] | 0.618 nM | 0.147 nM | 71 h | 0.158 nM
